This note sets out measurements from patent publication US11420970B1 (NOVARTIS AG, priority 2019, dated 2022).

Test [1] has as its system cellular H3K36me2 level in thyroid carcinoma cell line CGTH-W-1 (NSD2 E1099K). In words: H3K36me2 cellular ELISA assay in CGTH-W-1 line. It counts as cell-based. The following applies: Homo sapiens, CGTH-W-1, 72 h, read-out: H3K36me2 ELISA in CGTH-W-1. A digest of the protocol: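 After 72 h compound treatment of NSD2 E1099K-mutant CGTH-W-1 cells, H3K36me2 and total H3 were quantified by ELISA with chemiluminescent read-out. A parallel-seeded plate gave cell viability by CellTiter-Glo.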

The subject of test [2] is cellular H3K36me2 level in multiple myeloma cell line KMS11 (t(4;14)+). In words: H3K36me2 cellular ELISA assay in KMS11-Par line. The following applies: Homo sapiens, KMS-11; KMS11-Par line, ELISA, 72 hours; read-out: H3K36me2 ELISA in KMS11-Par. Type of test: cell-based. The gist of the method: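 After 72 h compound exposure, HCl-extracted histones from KMS11 (t(4;14)+) cells were probed by ELISA for H3K36me2 against total H3 with a chemiluminescence read-out. Cells were plated at 1,250/well in Opti-MEM plus B-27 and N2 the day before. A parallel CellTiter-Glo plate tracked viability.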
Background: An ELISA detects its analyte on a solid surface through an enzyme-linked reagent.

The next test concerns the target NSD2 [1-1365] (Homo sapiens (Human), UniProt O96028). Description: LC-MS/MS-based NSD2 enzymatic assay (SAH production). Type of test: biochemical. The following applies: read-out: NSD2 IC50. A digest of the protocol:
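SAH formed was measured by LC-MS/MS using d4-SAH as internal standard and an SAH calibration curve. Compounds were preincubated 20 min with NSD2 [1-1365] and SAM; mouse-liver nucleosome then started a 90 min room-temperature reaction (8 nM enzyme, 1 μM SAM, 400 nM nucleosome final, pH 8.0), stopped with TFA.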

Each structure is given as a SMILES string.

NSD2 [1-1365], sequence (O96028 whole entry): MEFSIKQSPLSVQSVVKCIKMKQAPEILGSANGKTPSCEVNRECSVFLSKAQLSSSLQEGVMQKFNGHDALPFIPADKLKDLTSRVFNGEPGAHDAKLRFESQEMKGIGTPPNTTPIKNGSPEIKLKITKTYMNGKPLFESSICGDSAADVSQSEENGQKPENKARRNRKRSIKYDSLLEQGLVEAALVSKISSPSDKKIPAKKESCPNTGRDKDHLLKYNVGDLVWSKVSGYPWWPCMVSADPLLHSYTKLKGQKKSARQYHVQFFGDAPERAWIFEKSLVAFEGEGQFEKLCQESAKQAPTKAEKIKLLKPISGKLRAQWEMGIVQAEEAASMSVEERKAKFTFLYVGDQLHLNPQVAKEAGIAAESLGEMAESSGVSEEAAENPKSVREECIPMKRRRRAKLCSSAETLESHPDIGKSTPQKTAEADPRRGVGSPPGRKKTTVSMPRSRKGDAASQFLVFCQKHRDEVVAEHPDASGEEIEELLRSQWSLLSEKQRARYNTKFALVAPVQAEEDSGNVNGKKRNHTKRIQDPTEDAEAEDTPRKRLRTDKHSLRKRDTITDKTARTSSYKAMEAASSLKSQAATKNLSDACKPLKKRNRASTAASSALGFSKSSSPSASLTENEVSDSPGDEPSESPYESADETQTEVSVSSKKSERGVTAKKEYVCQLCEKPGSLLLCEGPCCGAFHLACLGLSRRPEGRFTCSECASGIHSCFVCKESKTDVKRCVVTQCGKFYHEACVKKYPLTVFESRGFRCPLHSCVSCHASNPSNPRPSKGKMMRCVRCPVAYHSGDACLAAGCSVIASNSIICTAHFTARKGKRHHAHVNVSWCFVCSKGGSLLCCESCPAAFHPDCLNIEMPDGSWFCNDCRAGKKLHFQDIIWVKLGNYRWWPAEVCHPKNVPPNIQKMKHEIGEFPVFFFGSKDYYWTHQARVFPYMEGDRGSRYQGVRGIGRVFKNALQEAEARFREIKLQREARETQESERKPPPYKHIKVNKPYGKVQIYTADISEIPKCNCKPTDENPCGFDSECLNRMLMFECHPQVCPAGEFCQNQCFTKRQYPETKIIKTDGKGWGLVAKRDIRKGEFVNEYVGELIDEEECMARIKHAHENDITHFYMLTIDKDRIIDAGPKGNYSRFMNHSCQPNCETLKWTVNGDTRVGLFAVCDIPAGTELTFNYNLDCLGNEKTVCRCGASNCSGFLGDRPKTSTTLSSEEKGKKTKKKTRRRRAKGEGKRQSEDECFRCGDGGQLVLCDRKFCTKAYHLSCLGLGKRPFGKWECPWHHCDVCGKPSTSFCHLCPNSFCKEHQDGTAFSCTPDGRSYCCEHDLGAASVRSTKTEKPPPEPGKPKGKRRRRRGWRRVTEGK

`Nc1ncnc2c1ncn2Cc1cc(-c2ccc(F)c(F)c2)ncc1N1CCC[C@](N)(c2nc(Cl)ccc2F)C1` [Example 192, (R)-9-((5-(3-amino-3-(6-chloro-3-fluoropyridin-2-yl)piperidin-1-yl)-2-(3,4-difluorophenyl)pyridin-4-yl)methyl)-9H-purin-6-amine]: the figures for the IC50 (in test [1]; in test [2]; at NSD2 [1-1365]) were 731 nM, 2180 nM and 10 to 1000 nM, respectively.
Consider `Nc1ncnc2c1ncn2Cc1cc(-c2ccc(F)cc2)ncc1N1CCCC(N)(c2ccc(F)c(CF)n2)C1` (stereo not drawn) [Example 193, 9-((5-(3-amino-3-(5-fluoro-6-(fluoromethyl)pyridin-2-yl)piperidin-1-yl)-2-(4-fluorophenyl)pyridin-4-yl)methyl)-9H-purin-6-amine], for which the IC50 in test [1] was 876 nM; in test [2] it was 1850 nM; at NSD2 [1-1365], 10 to 1000 nM.
Turning to `COc1ccc(-c2cc(Cn3cnc4c(N)ncnc43)c(N3CCC[C@](N)(c4cccc(Cl)n4)C3)cn2)nc1Cl` [Example 194, (R)-9-((5-(3-amino-3-(6-chloropyridin-2-yl)piperidin-1-yl)-6′-chloro-5′-methoxy-[2,2′-bipyridin]-4-yl)methyl)-9H-purin-6-amine], the figures for the IC50 (in test [1]; in test [2]; on NSD2 [1-1365]) were 805 nM, 3280 nM and 10 to 1000 nM, respectively.
The matching figures for `Nc1ncnc2c1ncn2Cc1cc(-c2ccc(F)cn2)ncc1N1CCC[C@](N)(c2cccc(Cl)n2)C1` [Example 196, (R)-9-((5-(3-amino-3-(6-chloropyridin-2-yl)piperidin-1-yl)-5′-fluoro-[2,2′-bipyridin]-4-yl)methyl)-9H-purin-6-amine]: 637 nM, 2690 nM and 10 to 1000 nM.
The matching figures for `Nc1ncnc2c1ncn2Cc1cc(-c2ccc(F)c(F)c2)ncc1N1CCC[C@](N)(c2ccccn2)C1` [Example 198, (R)-9-((5-(3-amino-3-(pyridin-2-yl)piperidin-1-yl)-2-(3,4-difluorophenyl)pyridin-4-yl)methyl)-9H-purin-6-amine]: 17.7 nM, 41 nM and 1 to 10 nM.
Taken in the same sequence, the figures for `Nc1ncnc2c1ncn2Cc1cc(-c2ccc(F)c(F)c2)ncc1N1CCC[C@](N)(c2cccc(Cl)n2)C1` [Example 200, (R)-9-((5-(3-amino-3-(6-chloropyridin-2-yl)piperidin-1-yl)-2-(3,4-difluorophenyl)pyridin-4-yl)methyl)-9H-purin-6-amine] were 180 nM, 330 nM and 1 to 10 nM.
On to `Nc1ncnc2c1ncn2Cc1cc(-c2ccc(F)c(F)c2)ncc1N1CCC[C@](N)(c2cccc(F)n2)C1` [Example 201, (R)-9-((5-(3-amino-3-(6-fluoropyridin-2-yl)piperidin-1-yl)-2-(3,4-difluorophenyl)pyridin-4-yl)methyl)-9H-purin-6-amine], for which the IC50 in test [1] was 123 nM; in test [2], 286 nM; at NSD2 [1-1365], 1 to 10 nM.
Taken in the same sequence, the figures for `Nc1ncnc2c1ncn2Cc1cc(-c2ccc(F)c(F)c2)ncc1N1CCC[C@](N)(c2cc(O)cc(F)n2)C1` [Example 206, (R)-2-(3-amino-1-(4-((6-amino-9H-purin-9-yl)methyl)-6-(3,4-difluorophenyl)pyridin-3-yl)piperidin-3-yl)-6-fluoropyridin-4-ol] were 117 nM, 1160 nM and 1 to 10 nM.
The matching figures for `C[C@@H](F)c1cccc([C@@]2(N)CCCN(c3cnc(-c4ccc(F)cc4)cc3Cn3cnc4c(N)ncnc43)C2)n1` [Example 212, 9-((5-((R)-3-amino-3-(6-((R)-1-fluoroethyl)pyridin-2-yl)piperidin-1-yl)-2-(4-fluorophenyl)pyridin-4-yl)methyl)-9H-purin-6-amine]: 132 nM, 289 nM and 10 to 1000 nM.
Taken in the same sequence, the figures for `COc1ccc(-c2cc(Cn3cnc4c(N)ncnc43)c(N3CCC[C@](N)(c4cccc(Cl)n4)C3)cn2)cc1F` [Example 213, (R)-9-((5-(3-amino-3-(6-chloropyridin-2-yl)piperidin-1-yl)-2-(3-fluoro-4-methoxyphenyl)pyridin-4-yl)methyl)-9H-purin-6-amine] were 258 nM, 387 nM and 1 to 10 nM.
On to `Nc1ncnc2c1ncn2Cc1cc(-c2ccc(F)c(F)c2)ncc1N1CCCC(N)(c2ccc(O)c(F)n2)C1` (stereo not drawn) [Example 214, 6-(3-amino-1-(4-((6-amino-9H-purin-9-yl)methyl)-6-(3,4-difluorophenyl)pyridin-3-yl)piperidin-3-yl)-2-fluoropyridin-3-ol], for which the IC50 in test [1] is 444 nM; in test [2], 2430 nM; on NSD2 [1-1365], 10 to 1000 nM.
Regarding `COc1ccc(-c2cc(Cn3cnc4c(N)ncnc43)c(N3CCC[C@](N)(c4ccc(F)c(Cl)n4)C3)cn2)cc1` [Example 216, (R)-9-((5-(3-amino-3-(6-chloro-5-fluoropyridin-2-yl)piperidin-1-yl)-2-(4-methoxyphenyl)pyridin-4-yl)methyl)-9H-purin-6-amine], the IC50 in test [1] is 1880 nM; in test [2], 2570 nM; at NSD2 [1-1365], 10 to 1000 nM.
For the molecule `Nc1ncnc2c1ncn2Cc1cc(-c2ccc(F)c(F)c2)ncc1N1CCC[C@](N)(c2cc(O)cc(Cl)n2)C1` [Example 219, (R)-2-(3-amino-1-(4-((6-amino-9H-purin-9-yl)methyl)-6-(3,4-difluorophenyl)pyridin-3-yl)piperidin-3-yl)-6-chloropyridin-4-ol], the IC50 in test [1] is 407 nM; in test [2], 3450 nM; on NSD2 [1-1365], 1 to 10 nM.
On to `Nc1ncnc2c1ncn2Cc1cc(-c2ccc(F)cc2)ncc1N1CCC[C@](N)(c2ccc(F)c(Cl)n2)C1` [Example 221, (R)-9-((5-(3-amino-3-(6-chloro-5-fluoropyridin-2-yl)piperidin-1-yl)-2-(4-fluorophenyl)pyridin-4-yl)methyl)-9H-purin-6-amine], for which the IC50 in test [1] was 269 nM; in test [2], 1290 nM; on NSD2 [1-1365], 1 to 10 nM.
Consider `COc1ccc(-c2cc(Cn3cnc4c(N)ncnc43)c(N3CCC[C@](N)(c4cccc(Cl)n4)C3)cn2)nc1F` [Example 224, (R)-9-((5-(3-amino-3-(6-chloropyridin-2-yl)piperidin-1-yl)-6′-fluoro-5′-methoxy-[2,2′-bipyridin]-4-yl)methyl)-9H-purin-6-amine], for which the IC50 in test [1] is 348 nM; in test [2], 1710 nM; at NSD2 [1-1365], 1 to 10 nM.
Take `Nc1ncnc2c1ncn2Cc1cc(-c2ccc(F)c(F)c2)ncc1N1CCC[C@](N)(c2cccc(CF)n2)C1` [Example 226, (R)-9-((5-(3-amino-3-(6-(fluoromethyl)pyridin-2-yl)piperidin-1-yl)-2-(3,4-difluorophenyl)pyridin-4-yl)methyl)-9H-purin-6-amine]: the IC50 in test [1] was 66.8 nM; in test [2] it was 169 nM; on NSD2 [1-1365], 1 to 10 nM.
The matching figures for `Nc1ncnc2c1ncn2Cc1cc(-c2ccc(F)c(F)c2)ncc1N1CCC[C@](N)(c2cccc(C(F)F)n2)C1` [Example 227, (R)-9-((5-(3-amino-3-(6-(difluoromethyl)pyridin-2-yl)piperidin-1-yl)-2-(3,4-difluorophenyl)pyridin-4-yl)methyl)-9H-purin-6-amine]: 133 nM, 302 nM and 10 to 1000 nM.
Taken in the same sequence, the figures for `Cc1ccc(-c2cc(Cn3cnc4c(N)ncnc43)c(N3CCCC(N)(c4cccc(Cl)n4)C3)cn2)cn1` (stereo not drawn) [Example 229, 9-((5-(3-amino-3-(6-chloropyridin-2-yl)piperidin-1-yl)-6′-methyl-[2,3′-bipyridin]-4-yl)methyl)-9H-purin-6-amine] were 1970 nM, 7490 nM and 10 to 1000 nM.
Taken in the same sequence, the figures for `COc1ccc(Cl)nc1[C@@]1(N)CCCN(c2cnc(-c3ccc(F)c(F)c3)cc2Cn2cnc3c(N)ncnc32)C1` [Example 230, (R)-9-((5-(3-amino-3-(6-chloro-3-methoxypyridin-2-yl)piperidin-1-yl)-2-(3,4-difluorophenyl)pyridin-4-yl)methyl)-9H-purin-6-amine] were 1650 nM, 9980 nM and 10 to 1000 nM.
Consider `COc1ncc(-c2cc(Cn3cnc4c(N)ncnc43)c(N3CCC[C@](N)(c4cccc(Cl)n4)C3)cn2)cc1F` [Example 231, (R)-9-((5-(3-amino-3-(6-chloropyridin-2-yl)piperidin-1-yl)-5′-fluoro-6′-methoxy-[2,3′-bipyridin]-4-yl)methyl)-9H-purin-6-amine], for which the IC50 in test [1] is 2150 nM; in test [2], 7440 nM; at NSD2 [1-1365], 10 to 1000 nM.
For `Cc1cccc([C@@]2(N)CCCN(c3cnc(-c4ccc(F)c(F)c4)cc3Cn3cnc4c(N)ncnc43)C2)[n+]1[O-]` [Example 232, (R)-2-(3-amino-1-(4-((6-amino-9H-purin-9-yl)methyl)-6-(3,4-difluorophenyl)pyridin-3-yl)piperidin-3-yl)-6-methylpyridine 1-oxide], the figures for the IC50 (in test [1]; in test [2]; on NSD2 [1-1365]) were 1470 nM, 7650 nM and 10 to 1000 nM, respectively.
